Source: article PMC6558205 (Frontiers in Pharmacology, 2019)

Legend:
[1] = target: T1, human long isoform of D2 receptor (D2LR) (Homo sapiens, UniProt P14416); test: BRET assay of Gi activation, agonistic effect at the D2R canonical pathway, in HEK-293T cells; assay type: cell-based; details: BRET signal after 5 min stimulation, decrease = activation
T1 construct: expressed in transfected cells; host or cells: HEK293T
Experimental: HEK293T cells were cultured in Dulbecco’s modified eagle medium (DMEM) supplemented with 10% fetal bovine serum and 100 U/mL penicillin/streptomycin at 37°C in 5% CO2. Forty-eight hours before the experiments, cells were transfected in suspension, using polyethylenimine (PEI; 25 kDa linear; Polysciences, Warrington, PA, USA) at a ratio of 3:1 PEI/DNA, and directly seeded in 96-well white plates (OptiPlate; PerkinElmer) at a density of 4 × 10^4 cells/well and at 37°C in 5% CO2. When needed, total DNA amount was adjusted with salmon sperm DNA (Invitrogen, Carlsbad, CA, USA).

[2] = target: T1, human long isoform of D2 receptor (D2LR); test: Estimation of functional selectivity between Gi and β-arr2 pathways (ratios of Ki, Imax, Imax/Ki); assay type: cell-based
From the text: (§1) Then, for every compound, we calculate the ratios of their K i and I max values for the two pathways.

[3] = target: T1, human long isoform of D2 receptor (D2LR); test: ebBRET assay of inhibition of dopamine-induced β-arrestin-2 translocation in HEK-293T cells; assay type: cell-based; details: 10 µM dopamine; for Ki: Ki (nM) (95% CI), apparent affinity, IC50 corrected by Cheng–Prusoff, HEK-293T
From the text: as §1

[4] = target: T1, human long isoform of D2 receptor (D2LR); test: BRET assay of inhibition of dopamine-induced Gi activation in HEK-293T cells; assay type: cell-based; details: 100 nM dopamine; for Ki: Ki (nM) (95% CI), apparent affinity, IC50 corrected by Cheng–Prusoff, HEK-293T; for I max for inhibition of the dopamine effect on Gi: text summary over 5 and 20 min
From the text: as §1

[5] = Solubility limit seen in inhibition curves; assay type: physicochemical; details: complete inhibition curves not obtained in Gi antagonism assay

T1 sequence (P14416 whole entry, canonical isoform): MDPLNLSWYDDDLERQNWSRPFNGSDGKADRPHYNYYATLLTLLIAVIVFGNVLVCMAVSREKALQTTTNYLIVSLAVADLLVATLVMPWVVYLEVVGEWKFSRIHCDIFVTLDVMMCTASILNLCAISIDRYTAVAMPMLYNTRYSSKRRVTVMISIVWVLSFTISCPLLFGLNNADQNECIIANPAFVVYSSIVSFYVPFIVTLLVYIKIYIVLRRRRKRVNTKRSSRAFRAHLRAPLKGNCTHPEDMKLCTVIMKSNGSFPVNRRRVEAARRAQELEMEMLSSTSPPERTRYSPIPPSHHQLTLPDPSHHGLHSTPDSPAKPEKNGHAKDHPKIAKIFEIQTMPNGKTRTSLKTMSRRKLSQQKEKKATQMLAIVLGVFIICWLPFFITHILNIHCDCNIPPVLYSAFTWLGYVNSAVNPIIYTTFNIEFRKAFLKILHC

E max for Gi activation (change in BRET signal) [1]	Imax (Gi)/Imax (β-arr) ([2]; 5 min)	Ki (Gi)/Ki (β-arr) ([2]; 5 min)	Imax (Gi)/Imax (β-arr) ([2]; 20 min)	Ki (Gi)/Ki (β-arr) ([2]; 20 min)	I max (% dopamine effect) ± S.E.M., 5 min β-arr ([3]; 5 min) [% dopamine effect]	I max (% dopamine effect) ± S.E.M., 20 min β-arr ([3]; 20 min) [% dopamine effect]	Ki ([3]; 5 min β-arr, 5 min) [nM]	Ki ([3]; 20 min β-arr, 20 min) [nM]	I max (% dopamine effect) ± S.E.M., 5 min Gi ([4]; 5 min) [% dopamine effect]	I max (% dopamine effect) ± S.E.M., 20 min Gi ([4]; 20 min) [% dopamine effect]	Ki ([4]; 5 min Gi, 5 min) [nM]	Ki ([4]; 20 min Gi, 20 min) [nM]	I max for inhibition of the dopamine effect on Gi [4]	Structure (SMILES)	Solubility [5]
−0.07	0.51	1.08	0.56	1.60	148 ± 20	129 ± 12	109	41.6	75.1 ± 16.3	72.4 ± 9.8	118	66.7	70–80%	Clc1ccc(-n2cc(CN3CCN(c4ccccc4)CC3)cn2)cc1 [LASSBio-579, 1-((1-(4-chlorophenyl)-1H-pyrazol-4-yl)methyl)-4-phenylpiperazine]	lack of solubility at higher concentrations
−0.04	1.11	0.74	0.76	0.91	71.3 ± 12.3	94.2 ± 7.4	353	209	78.9 ± 19.2	71.6 ± 13.7	263	190	70–80%	Oc1ccc(N2CCN(Cc3cnn(-c4ccc(Cl)cc4)c3)CC2)cc1 [LQFM 037]	lack of solubility at higher concentrations
